As a reminder, the IC50 is the concentration needed to halve the response being measured. A word on the inhibition: it is the change of the read-out against control, counted positive when it falls.

Data on eleven molecules can be found in US20170129916A1, “NOVEL BETULINIC PROLINE IMIDAZOLE DERIVATIVES AS HIV INHIBITORS” (HETERO RESEARCH FOUNDATION, priority 2014, published 2017).

The nature of series [1]: Single dose oral pharmacokinetic study. Type of series: in vivo. The conditions noted are these: mouse, mice, 30 mg/kg, plasma; for AUC(0-t): read-out: Mice oral PK @30 mg/kg AUC 0-t; for Cmax: read-out: Mice oral PK @30 mg/kg Cmax. As to the method: The test item was administered through oral route to animals (rat/mice) at 30 mg/kg dose in a suitable vehicle at 10 ml/kg dose volume. Blood samples (˜50 uL at each time point) were collected from retro-orbital plexus using K3 EDTA as anticoagulant in eppend; orf tubes at defined time intervals under light ether anesthesia. The samples were centrifuged at 3500×g to separate plasma and stored at −80° C. until analysis.
Sample analysis: Test samples were analyzed using LC-MS-MS after developing fit-for-purpose method for each of test compound.

Series [2] has as its system HIV-1 strains, for e.g., 92HT599. Nature of the series: Antiviral activity: p24 estimation in MT-2 cells infected with HIV-1. The settings on record: Human immunodeficiency virus 1, MT2, MT-2 cells infected with HIV-1, p24, ~96 hours; for IC50: read-out: Antiviral activity IC50 (nM) Efficacy IC50. It counts as cell-based. The method, then:
MT-2 cells were infected with required number of TCID50's of HIV-1 strains, for e.g., 92HT599. The infected cells were plated at the concentration of 30, 000 cells per well in a 96 well plate. Test compound was added to the 96 well plate with the final concentration of DMSO (vehicle—not more than 1%). The plates are then incubated in a CO2 incubator for ˜96 hours (˜4 days) for viral infection. At the end of incubation period an aliquot from each well was taken for p24 estimation. The quantitation of p24 is an estimated index for antiviral activity of the compound. Percent inhibition was calculated with reference to control values (vehicle controls).
p-24 estimation was carried out using Advance biosciences kit as per the procedure detailed by supplier.

As to `C=C(C)[C@@H]1CC[C@]2(C(=O)N3CCC[C@H]3c3ncc(-c4ccccn4)[nH]3)CC[C@]3(C)[C@H](CC[C@@H]4[C@@]5(C)CC[C@H](OC(=O)[C@H]6C[C@@H](C(=O)O)C6(C)C)C(C)(C)[C@@H]5CC[C@]43C)[C@@H]12` [Compound 1, (1R,3S)-2,2-dimethyl-3-((((1R,3aS,5aR,5bR,7aR,9S,11aR,11bR,13aR,13bR)-5a,5b,8,8,11a-pentamethyl-1-(prop-1-en-2-yl)-3a-((S)-2-(5-(pyridin-2-yl)-1H-imidazol-2-yl)pyrrolidine-1-carbonyl)icosahydro-1H-cyclopenta[a]chrysen-9-yl)oxy)carbonyl)cyclobutane-1-carboxylic acid], in series [1], the AUC(0-t) is 177 µg·h/mL and the Cmax came to 6290 ng/mL. Besides, the IC50 in series [2] was 8.06 nM.

As to `C=C(C)[C@@H]1CC[C@]2(C(=O)N3CCC[C@H]3c3ncc(-c4cccc(F)c4)[nH]3)CC[C@]3(C)[C@H](CC[C@@H]4[C@@]5(C)CC[C@H](OC(=O)[C@H]6C[C@@H](C(=O)O)C6(C)C)C(C)(C)[C@@H]5CC[C@]43C)[C@@H]12` [Compound 4, (1R,3S)-3-((((1R,3aS,5aR,5bR,7aR,9S,11aR,11bR,13aR,13bR)-3a-((S)-2-(5-(3-fluorophenyl)-1H-imidazol-2-yl)pyrrolidine-1-carbonyl)-5a,5b,8,8,11a-pentamethyl-1-(prop-1-en-2-yl)icosahydro-1H-cyclopenta[a]chrysen-9-yl)oxy)carbonyl)-2,2-dimethylcyclobutane-1-carboxylic acid], in series [1], the AUC(0-t) stood at 398 µg·h/mL and the Cmax came out at 14800 ng/mL. The IC50 in series [2] was 1.67 nM.

Turning to `C=C(C)[C@@H]1CC[C@]2(C(=O)N3C[C@H](OCCOC)C[C@H]3c3nc(-c4ccccc4)c[nH]3)CC[C@]3(C)[C@H](CC[C@@H]4[C@@]5(C)CC[C@H](OC(=O)[C@H]6C[C@@H](C(=O)O)C6(C)C)C(C)(C)[C@@H]5CC[C@]43C)[C@@H]12` [Compound 7, (1R,3S)-3-((((1R,3aS,5aR,5bR,7aR,9S,11aR,11b,13aR,13bR)-3a-((2S,4R)-4-(2-methoxyethoxy)-2-(4-phenyl-1H-imidazol-2-yl)pyrrolidine-1-carbonyl)-5a,5b,8,8,11a-pentamethyl-1-(prop-1-en-2-yl)icosahydro-1H-cyclopenta[a]chrysen-9-yl)oxy)carbonyl)-2,2-dimethylcyclobutane-1-carboxylic acid], in series [1], the AUC(0-t) was 342 µg·h/mL and the Cmax came out at 12800 ng/mL. Further, the IC50 in series [2] was 5.5 nM.

For the molecule `C=C(C)[C@@H]1CC[C@]2(C(=O)N3C[C@H](OCCOC)C[C@H]3c3nc(-c4cccc(F)c4)c[nH]3)CC[C@]3(C)[C@H](CC[C@@H]4[C@@]5(C)CC[C@H](OC(=O)[C@H]6C[C@@H](C(=O)O)C6(C)C)C(C)(C)[C@@H]5CC[C@]43C)[C@@H]12` [Compound 8, (11R,3S)-3-((((1R,3aS,5aR,5bR,7aR,9S,11aR,11bR,13aR,13bR)-3a-((2S,4R)-2-(4-(3-fluorophenyl)-1H-imidazol-2-yl)-4-(2-methoxyethoxy)pyrrolidine-1-carbonyl)-5a,5b,8,8,11a-pentamethyl-1-(prop-1-en-2-yl)icosahydro-1H-cyclopenta[a]chrysen-9-yl)oxy)carbonyl)-2,2-dimethylcyclobutane-1-carboxylic acid], in series [1], the AUC(0-t) was 1240 µg·h/mL and the Cmax is 41300 ng/mL. Moreover, the IC50 in series [2] is 61.1 nM.

Consider `C=C(C)[C@@H]1CC[C@]2(C(=O)N3C[C@H](OCCOC)C[C@H]3c3nc(-c4ccc(F)cc4)c[nH]3)CC[C@]3(C)[C@H](CC[C@@H]4[C@@]5(C)CC[C@H](OC(=O)[C@H]6C[C@@H](C(=O)O)C6(C)C)C(C)(C)[C@@H]5CC[C@]43C)[C@@H]12` [Compound 9, (1R,3S)-3-((((1R,3aS,5aR,5bR,7aR,9S,11aR,11bR,13aR,13bR)-3a-((2S,4R)-2-(4-(4-fluorophenyl)-1H-imidazol-2-yl)-4-(2-methoxyethoxy)pyrrolidine-1-carbonyl)-5a,5b,8,8,11a-pentamethyl-1-(prop-1-en-2-yl)icosahydro-1H-cyclopenta[a]chrysen-9-yl)oxy)carbonyl)-2,2-dimethylcyclobutane-1-carboxylic acid], for which, in series [2], the IC50 is 5.52 nM.

For the molecule `C=C(C)[C@@H]1CC[C@]2(C(=O)N3CCC[C@H]3c3nc(-c4ccccc4)c(C)[nH]3)CC[C@]3(C)[C@H](CC[C@@H]4[C@@]5(C)CC[C@H](OC(=O)[C@H]6C[C@@H](C(=O)O)C6(C)C)C(C)(C)[C@@H]5CC[C@]43C)[C@@H]12` [Compound 13, (1R,3S)-2,2-dimethyl-3-((((1R,3aS,5aR,5bR,7aR,9S,11aR,11bR,13aR,13bR)-5a,5b,8,8,11a-pentamethyl-3a-((S)-2-(5-methyl-4-phenyl-1H-imidazol-2-yl)pyrrolidine-1-carbonyl)-1-(prop-1-en-2-yl)icosahydro-1H-cyclopenta[a]chrysen-9-yl)oxy)carbonyl)cyclobutane-1-carboxylic acid], the IC50 in series [2] was 4.9 nM.

Take `C=C(C)[C@@H]1CC[C@]2(C(=O)N3CCC[C@H](c4ncc(-c5ccccc5)[nH]4)C3)CC[C@]3(C)[C@H](CC[C@@H]4[C@@]5(C)CC[C@H](OC(=O)[C@H]6C[C@@H](C(=O)O)C6(C)C)C(C)(C)[C@@H]5CC[C@]43C)[C@@H]12` [Compound 20, (1R,3S)-2,2-dimethyl-3-((((1R,3aS,5aR,5bR,7aR,9S,11aR,11bR,13aR,13bR)-5a,5b,8,8,11a-pentamethyl-3a-((S)-3-(5-phenyl-1H-imidazol-2-yl)piperidine-1-carbonyl)-1-(prop-1-en-2-yl)icosahydro-1H-cyclopenta[a]chrysen-9-yl)oxy)carbonyl)cyclobutane-1-carboxylic acid]: in series [2], the IC50 is 58.4 nM.

As for `C=C(C)[C@@H]1CC[C@]2(C(=O)N3CCC[C@H]3c3ncc(-c4ccccc4)[nH]3)CC[C@]3(C)[C@H](CC[C@@H]4[C@@]5(C)CC[C@H](OC(=O)C6C(C(=O)O)C6(C)C)C(C)(C)[C@@H]5CC[C@]43C)[C@@H]12` (stereo partly drawn) [Compound 22, 2,2-di methyl-3-((((1R,3aS,5aR,5bR,7aR,9S,11aR,11bR,13aR,13bR)-5a,5b,8,8,11a-pentamethyl-3a-((S)-2-(5-phenyl-1H-imidazol-2-yl)pyrrolidine-1-carbonyl)-1-(prop-1-en-2-yl)-icosahydro-1H-cyclopenta[a]chrysen-9-yl)oxy)carbonyl)cyclopropane-1-carboxylic acid], the IC50 in series [2] was 1000 nM.

In the case of `C=C(C)[C@@H]1CC[C@]2(C(=O)N3C[C@H](OC(C)C)C[C@H]3c3nc(-c4ccccc4)c[nH]3)CC[C@]3(C)[C@H](CC[C@@H]4[C@@]5(C)CC[C@H](OC(=O)[C@H]6C[C@@H](C(=O)O)C6(C)C)C(C)(C)[C@@H]5CC[C@]43C)[C@@H]12` [Compound 30, (1R,3S)-3-((((1R,3aS,5aR,5bR,7aR,9S,11aR,11bR,13aR,13bR)-3a-((2S,4R)-4-isopropoxy-2-(4-phenyl-1H-imidazol-2-yl)pyrrolidine-1-carbonyl)-5a,5b,8,8,11a-pentamethyl-1-(prop-1-en-2-yl)icosahydro-1H-cyclopenta[a]chrysen-9-yl)oxy)carbonyl)-2,2-dimethylcyclobutane-1-carboxylic acid], in series [2], the inhibition at 0.1 µM is 61%, the inhibition at 1 µM is 99% and the IC50 was 89.6 nM.

As to `C=C(C)[C@@H]1CC[C@]2(C(=O)N3C[C@H](OCCOC)C[C@H]3c3nc(-c4cccc(F)c4)c[nH]3)CC[C@]3(C)[C@H](CC[C@@H]4[C@@]5(C)CC[C@H](OC(=O)CC(C)(C)C(=O)O)C(C)(C)[C@@H]5CC[C@]43C)[C@@H]12` [Compound 44, 4-(((1R,3aS,5aR,5bR,7aR,9S,11aR,1bR,13aR,13bR)-3a-((2S,4R)-2-(4-(3-fluorophenyl)-1H-imidazol-2-yl)-4-(2-methoxyethoxy)pyrrolidine-1-carbonyl)-5a,5b,8,8,11a-pentamethyl-1-(prop-1-en-2-yl)icosahydro-1H-cyclopenta[a]chrysen-9-yl)oxy)-2,2-dimethyl-4-oxo butanoic acid], the IC50 in series [2] was 27.6 nM.

On to `CC1([C@@H]2CC[C@]3(C(=O)N4CCC[C@H]4c4nc5ccccc5[nH]4)CC[C@]4(C)[C@H](CC[C@@H]5[C@@]6(C)CC[C@H](OC(=O)[C@H]7C[C@@H](C(=O)O)C7(C)C)C(C)(C)[C@@H]6CC[C@]54C)[C@@H]23)CC1` [Compound 61, (1R,3S)-3-((((1R,3aS,5aR,5bR,7aR,9S,11aR,11bR,13aR,13bR)-3a-((S)-2-(1H-benzo[d]imidazol-2-yl)pyrrolidine-1-carbonyl)-5a,5b,8,8,11a-pentamethyl-1-(1-methylcyclopropyl)icosahydro-1H-cyclopenta[a]chrysen-9-yl)oxy)carbonyl)-2,2-dimethylcyclobutane-1-carboxylic acid], for which, in series [2], the inhibition at 0.1 µM was 100%, the inhibition at 1 µM is 100% and the IC50 was 56.9 nM.
